Drawing on patent publication US8399465B2, “Compounds with two fused bicyclic heteroaryl moieties as modulators of leukotriene A4 hydrolase” (Janssen Pharmaceutica NV, priority 2009, dated 2013), this text covers IC50 for 24 compounds.

As a reminder, the IC50 is the concentration that inhibits the measured activity by half.

Counter-ions that a name gives are not always drawn.

Assay [1] concerns the target T1, recombinant human LTA4 hydrolase (rhLTA4H) (Homo sapiens, UniProt P09960).
T1 construct: made in house; host or cells: Spodoptera frugiperda (Sf-9) cells, baculovirus (pFastBac1)
T1 sequence (P09960 1-611): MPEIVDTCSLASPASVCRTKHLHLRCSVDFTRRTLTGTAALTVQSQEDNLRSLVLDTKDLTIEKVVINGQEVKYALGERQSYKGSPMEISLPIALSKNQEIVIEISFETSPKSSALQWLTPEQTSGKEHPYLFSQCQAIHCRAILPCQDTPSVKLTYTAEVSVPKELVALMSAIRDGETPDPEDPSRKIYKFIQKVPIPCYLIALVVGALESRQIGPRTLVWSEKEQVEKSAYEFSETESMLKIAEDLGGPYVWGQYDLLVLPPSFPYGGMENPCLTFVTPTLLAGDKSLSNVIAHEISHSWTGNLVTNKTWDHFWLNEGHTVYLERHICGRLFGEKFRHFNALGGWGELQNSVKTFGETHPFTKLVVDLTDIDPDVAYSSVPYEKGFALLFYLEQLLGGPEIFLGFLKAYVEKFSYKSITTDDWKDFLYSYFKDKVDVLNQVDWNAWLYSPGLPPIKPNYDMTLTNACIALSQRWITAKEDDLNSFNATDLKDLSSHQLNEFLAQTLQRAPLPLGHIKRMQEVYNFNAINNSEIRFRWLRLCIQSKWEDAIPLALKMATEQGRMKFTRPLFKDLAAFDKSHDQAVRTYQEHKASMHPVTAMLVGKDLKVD
As to the kind of experiment: Recombinant human LTA4 hydrolase assay for LTA4 hydrolase inhibitor activity. The class given is biochemical. The conditions noted are these: rhLTA4H, LTB4 by immunoassay; single determination or average of two or more; mark after value = form tested: ′ free base, ″ hydrochloride, ^ formate; read-out: IC50. In outline:
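LTB4 formation, measured by enzyme immunoassay, was the read-out. The enzyme, recombinant human LTA4H expressed in Sf-9 insect cells (10 ng per reaction), was exposed to compound for 10 min at room temperature before hydrolysed-ester LTA4 substrate was added for 30 min. Enzyme-free negatives were included.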

Assay [2] concerns LTB4 production in murine blood (LTA4H). Kind of assay: LTB4 production by calcium ionophore-stimulated murine blood for LTA4H inhibitor activity. Format: cell-based, CD-1 mice. The conditions noted are these: Mus musculus; murine blood diluted 1 in 15, A23187 stimulated; single determination or average; mark after value = form tested: ′ free base, ″ hydrochloride, ^ formate; read-out: IC50. The protocol:
Assay 2: LTB4 Production by Calcium Ionophore-Stimulated Murine Blood for LTA4H Inhibitor Activity
CD-1 mice were sacrificed, and blood was collected in heparin-containing syringes by cardiac puncture. […] After the microtiter plate contents were incubated for 15 min at 37° C. in a humidified incubator, calcium ionophore A23187 (Sigma Chemical Co., St. Louis, Mo.) was added to each sample well (final concentration=7 μg/mL). The incubation was continued under the same conditions for an additional 30 min to allow LTB4 formation. The reaction was terminated by centrifugation (833×g, 10 min at 4° C.), and supernatants were analyzed for LTB4 by a commercially available enzyme-linked immunoassay (Cayman Chemical Co.) according to the manufacturer's instructions. Positive controls, under essentially identical conditions but without addition of an inhibitor compound, and negative unstimulated controls, containing all assay components except calcium ionophore, were routinely run in each experiment. […] The values presented here are the result of a single determination or an average of two or more determinations.

Take `O=C(C1CCC1)N1C[C@@H]2C[C@H]1CN2Cc1coc2cc(Oc3nc4ncccc4s3)ccc12` [Example 357, (1S,4S)-Cyclobutyl-{5-[6-(thiazolo[4,5-b]pyridin-2-yloxy)-benzofuran-3-ylmethyl]-2,5-diaza-bicyclo[2.2.1]hept-2-yl}-methanone]: the IC50 in assay [1] is 7 nM; in assay [2], 220 nM.
In the same order, the values of `FC(F)(F)C1CCN(Cc2cc3ccc(Oc4nc5ncccc5s4)cc3o2)CC1` [Example 191, 2-[2-(4-Trifluoromethyl-piperidin-1-ylmethyl)-benzofuran-6-yloxy]-thiazolo[4,5-b]pyridine formate] are 10 nM and 833 nM.
`CC(=O)N1C[C@H]2C[C@@H]1CN2Cc1cc2cc(Oc3nc4ncccc4s3)ccc2o1` [Example 102, (1R,4R)-1-{5-[5-(Thiazolo[4,5-b]pyridin-2-yloxy)-benzofuran-2-ylmethyl]-2,5-diaza-bicyclo[2.2.1]hept-2-yl}-ethanone]: the figures for the concentration for half-maximal inhibition (IC50) in assay [1] and in assay [2] were 12 nM and 293 nM, respectively.
Take `COC(=O)c1ccc(CN2C[C@@H]3C[C@H]2CN3Cc2coc3cc(Oc4nc5ncccc5s4)ccc23)cc1` [Example 360, (1S,4S)-4-{5-[6-(Thiazolo[4,5-b]pyridin-2-yloxy)-benzofuran-3-ylmethyl]-2,5-diaza-bicyclo[2.2.1]hept-2-ylmethyl}-benzoic acid methyl ester]: the results for the half-maximal inhibitory concentration (IC50) in assay [1] and in assay [2] were 17 nM and 350 nM, respectively.
Take `CC(=O)N1C[C@@H]2C[C@H]1CN2Cc1c[nH]c2cc(Oc3nc4ccccc4s3)ccc12` [Example 55, (1S,4S)-1-{5-[6-(Benzothiazol-2-yloxy)-1H-indol-3-ylmethyl]-2,5-diaza-bicyclo[2.2.1]hept-2-yl}-ethanone]: the half-maximal inhibitory concentration (IC50) is 3 nM in assay [1] and 129 nM in assay [2].
On to `CC1CN(Cc2coc3cc(Oc4nc5ncccc5s4)ccc23)CC(C)O1` (stereo not drawn) [Example 349, 2-[3-(2,6-Dimethyl-morpholin-4-ylmethyl)-benzofuran-6-yloxy]-thiazolo[4,5-b]pyridine], for which the IC50 in assay [1] amounted to 26 nM; in assay [2], 860 nM.
In the same order, the values of `Cc1cc(CC(=O)NCc2coc3cc(Oc4nc5ncccc5s4)ccc23)on1` [Example 391, 2-(3-Methyl-isoxazol-5-yl)-N-[6-(thiazolo[4,5-b]pyridin-2-yloxy)-benzofuran-3-ylmethyl]-acetamide] are 74 nM and 560 nM.
In the same order, the values of `O=C(C1CCN(Cc2c[nH]c3cc(Oc4nc5ccccc5s4)ccc23)CC1)N1CCCC1` [Example 23, {1-[6-(Benzothiazol-2-yloxy)-1H-indol-3-ylmethyl]-piperidin-4-yl}-pyrrolidin-1-yl-methanone] are 5 nM and 114 nM.
For `c1cnc2nc(Oc3ccc4c(CNCCN5CCOCC5)coc4c3)sc2c1` [Example 306, (2-Morpholin-4-yl-ethyl)-[6-(thiazolo[4,5-b]pyridin-2-yloxy)-benzofuran-3-ylmethyl]-amine formate], the IC50 came out at 95 nM in assay [1] and 10 nM in assay [2].
For `CC(=O)N[C@H]1C[C@H]2CC[C@@H](C1)N2Cc1cc2ccc(Oc3nc4ccccc4s3)cc2s1` [Example 134, meso-endo-N-{8-[6-(Benzothiazol-2-yloxy)-benzo[b]thiophen-2-ylmethyl]-8-aza-bicyclo[3.2.1]oct-3-yl}-acetamide], the IC50 was 43 nM in assay [1] and 740 nM in assay [2].
With `NC(=O)N[C@H]1C[C@H]2CC[C@@H](C1)N2Cc1cc2ccc(Oc3nc4ncccc4s3)cc2o1` [Example 172, meso-endo-{8-[6-(Thiazolo[4,5-b]pyridin-2-yloxy)-benzofuran-2-ylmethyl]-8-aza-bicyclo[3.2.1]oct-3-yl}-urea], the figures for the concentration for half-maximal inhibition (IC50) in assay [1] and in assay [2] were 9 nM and 230 nM, respectively.
Take `CS(=O)(=O)N1CCC(N(Cc2coc3cc(Oc4nc5ncccc5s4)ccc23)C2CC2)CC1` [Example 246, Cyclopropyl-(1-methanesulfonyl-piperidin-4-yl)-[6-(thiazolo[4,5-b]pyridin-2-yloxy)-benzofuran-3-ylmethyl]-amine]: the results for the IC50 in assay [1] and in assay [2] were 14 nM and 90 nM, respectively.
In the same order, the values of `CC(=O)N1[C@@H]2CC[C@H]1C[C@H](NCc1coc3cc(Oc4nc5ncccc5s4)ccc13)C2` [Example 333, meso-exo-1-(3-{[6-(Thiazolo[4,5-b]pyridin-2-yloxy)-benzofuran-3-ylmethyl]-amino}-8-aza-bicyclo[3.2.1]oct-8-yl)-ethanone formate] are 6 nM and 24 nM.
In the same order, the values of `CC(=O)N(C1CC1)C1CCN(Cc2coc3cc(Oc4nc5ncccc5s4)ccc23)CC1` [Example 322, N-Cyclopropyl-N-{1-[6-(thiazolo[4,5-b]pyridin-2-yloxy)-benzofuran-3-ylmethyl]-piperidin-4-yl}-acetamide] are 6 nM and 30 nM.
In the same order, the values of `O=C(c1coc2cc(Oc3nc4ncccc4s3)ccc12)N1CCC(F)CC1` [Example 376, (4-Fluoro-piperidin-1-yl)-[6-(thiazolo[4,5-b]pyridin-2-yloxy)-benzofuran-3-yl]-methanone] are 13 nM and 85 nM.
Consider `CCOC(=O)C1CCN(Cc2c[nH]c3cc(Oc4nc5ccccc5s4)ccc23)CC1` [Example 139, 1-[6-(Benzothiazol-2-yloxy)-1H-indol-3-ylmethyl]-piperidine-4-carboxylic acid ethyl ester], for which the IC50 amounted to 12 nM in assay [1] and 467 nM in assay [2].
In the same order, the values of `CC(=O)N(CC(=O)O)[C@H]1C[C@H]2CC[C@@H](C1)N2Cc1c[nH]c2ccc(Oc3nc4ccccc4s3)cc12` [Example 49, meso-endo-(Acetyl-{8-[5-(benzothiazol-2-yloxy)-1H-indol-3-ylmethyl]-8-aza-bicyclo[3.2.1]oct-3-yl}-amino)-acetic acid] are 13 nM and 10000 nM.
In the case of `c1ccc(N2CCN(Cc3coc4cc(Oc5nc6ncccc6s5)ccc34)CC2)nc1` [Example 288, 2-[3-(4-Pyridin-2-yl-piperazin-1-ylmethyl)-benzofuran-6-yloxy]-thiazolo[4,5-b]pyridine formate], the IC50 in assay [1] stood at 19 nM; in assay [2], 170 nM.
In the same order, the values of `CN(Cc1cccnc1)Cc1coc2cc(Oc3nc4ncccc4s3)ccc12` [Example 178, Methyl-pyridin-3-ylmethyl-[6-(thiazolo[4,5-b]pyridin-2-yloxy)-benzofuran-3-ylmethyl]-amine] are 20 nM and 290 nM.
In the same order, the values of `CC(=O)N[C@H]1C[C@H]2CC[C@@H](C1)N2Cc1cc2ccc(Oc3nc4ncccc4s3)cc2[nH]1` [Example 72, meso-endo-N-{8-[6-(Thiazolo[4,5-b]pyridin-2-yloxy)-1H-indol-2-ylmethyl]-8-aza-bicyclo[3.2.1]oct-3-yl}-acetamide] are 27 nM and 100 nM.
With `CC(C)(C)OC(=O)N1CC2CN(Cc3c[nH]c4cc(Oc5nc6ccccc6s5)ccc34)CC2C1` (stereo not drawn) [Example 146, 5-[6-(Benzothiazol-2-yloxy)-1H-indol-3-ylmethyl]-hexahydro-pyrrolo[3,4-c]pyrrole-2-carboxylic acid tert-butyl ester], the IC50 in assay [1] was found to be 17 nM; in assay [2], 582 nM.
For `Fc1ccc2c(c1)CN(Cc1coc3cc(Oc4nc5ncccc5s4)ccc13)C2` [Example 330, 2-[3-(5-Fluoro-1,3-dihydro-isoindol-2-ylmethyl)-benzofuran-6-yloxy]-thiazolo[4,5-b]pyridine], the concentration for half-maximal inhibition (IC50) in assay [1] came to 54 nM; in assay [2], 1040 nM.
In the same order, the values of `c1ccc2sc(Oc3cnc4c(CN5CCCCC5)c[nH]c4c3)nc2c1` [Example 31, 2-(3-Piperidin-1-ylmethyl-1H-pyrrolo[3,2-b]pyridin-6-yloxy)-benzothiazole] are 55 nM and 188 nM.
In the same order, the values of `c1ccc(CC2CCN(Cc3coc4cc(Oc5nc6ncccc6s5)ccc34)CC2)cc1` [Example 279, 2-[3-(4-Benzyl-piperidin-1-ylmethyl)-benzofuran-6-yloxy]-thiazolo[4,5-b]pyridine] are 44 nM and 130 nM.
